According to patent publication US9850272B2, “Therapeutically active estratrienthiazole derivatives as inhibitors of 17.beta-hydroxy-steroid dehydrogenase, type 1” (FORENDO PHARMA LTD, priority 2013, dated 2017):
Where a name gives a salt, the structure may show the parent alone.

What was measured:
[1] = target: T1, Recombinant Human 17β-HSD1 (Homo sapiens, UniProt P14061); assay: Inhibition of recombinant human 17β-HSD1 (conversion of 3H-estrone to estradiol, HPLC); type: biochemical; conditions: inhibitor at 1 μM, 30 nM estrone, 1 mM NADPH, 30 min at RT; for inhibition at 1 µM: read-out: 17β-HDS1 Inhibition % at 1 μM
T1 construct: made in house; host or cells: Sd9 (Sf9) insect cells, baculovirus (Bac to Bac Expression System)
T1 sequence (P14061 1-328): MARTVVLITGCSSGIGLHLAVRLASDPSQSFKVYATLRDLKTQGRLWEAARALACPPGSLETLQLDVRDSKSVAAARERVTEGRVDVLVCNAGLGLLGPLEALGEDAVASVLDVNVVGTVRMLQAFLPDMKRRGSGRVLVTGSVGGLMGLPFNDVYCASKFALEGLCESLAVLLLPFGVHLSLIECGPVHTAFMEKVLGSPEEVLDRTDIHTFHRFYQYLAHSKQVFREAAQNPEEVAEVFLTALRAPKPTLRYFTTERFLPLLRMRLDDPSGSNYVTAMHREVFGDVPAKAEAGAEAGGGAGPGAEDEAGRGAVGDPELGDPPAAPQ
Method: 17β-HSD1 Production and Isolation:
Recombinant baculovirus was generated by the “Bac to Bac Expression System” (Invitrogen). Recombinant bacmid was transfected to Sd9 insect cells using “Cellfectin Reagent” (Invitrogen). 60 h later cells were harvested; the microsomal fraction was isolated as described by Puranen, T. J., Poutanen, M. H., Peltoketo, H. E., Vihko, P. T. and Vihko, R. K. (1994) Site-directed mutagenesis of the putative active site of human 17 β-hydroxysteroid dehydrogenase type 1. Biochem. J. 304: 289-293. Aliquots were stored frozen until determination of enzymatic activity.
Assay—Inhibition of Recombinant Human 17β-HSD1:
Recombinant protein (1 μg/ml) was incubated in 20 mM KH2PO4 pH 7.4 with 30 nM estrone (including 800.000 cpm/ml of ^3H-estrone) and 1 mM NADPH for 30 min at RT, in the presence of the potential inhibitor at concentrations 1 μM or 0.1 μM. Inhibitor stock solutions were prepared in DMSO. Final concentration of DMSO was adjusted to 1% in all samples. The enzyme reaction was stopped by addition of 10% trichloroacetic acid (final concentration). Samples were centrifuged in a microtiter plate at 4000 rpm for 10 min. Supernatants were applied to reverse phase HPLC on a Waters Symmetry C18 column, equipped with a Waters Sentry Guard column. Isocratic HPLC runs were performed at RT at a flow rate of 1 ml/min in acetonitrile:water 48:52 as running solvent. Radioactivity was monitored in the eluate by a Packard Flow Scintillation Analyzer. Total radioactivity for estrone and estradiol were determined in each sample and percent conversion of estrone to estradiol was calculated according to the following formula:
(§1) Percent inhibition was calculated flowingly: % inhibition=100−% conversion

[2] = target: T2, Recombinant Human 17β-HSD2 (Homo sapiens, UniProt P37059); assay: Inhibition of recombinant human 17β-HSD2 (conversion of 3H-estradiol to estrone, HPLC); type: biochemical; conditions: inhibitor at 1 μM, 50 nM estradiol, 1 mM NADH, 30 min at RT; for inhibition at 1 µM: read-out: 17β-HSD2 Inhibition % at 1 μM
T2 construct: made in house; host or cells: Sd9 (Sf9) insect cells, baculovirus (Bac to Bac Expression System)
T2 sequence (P37059 1-387): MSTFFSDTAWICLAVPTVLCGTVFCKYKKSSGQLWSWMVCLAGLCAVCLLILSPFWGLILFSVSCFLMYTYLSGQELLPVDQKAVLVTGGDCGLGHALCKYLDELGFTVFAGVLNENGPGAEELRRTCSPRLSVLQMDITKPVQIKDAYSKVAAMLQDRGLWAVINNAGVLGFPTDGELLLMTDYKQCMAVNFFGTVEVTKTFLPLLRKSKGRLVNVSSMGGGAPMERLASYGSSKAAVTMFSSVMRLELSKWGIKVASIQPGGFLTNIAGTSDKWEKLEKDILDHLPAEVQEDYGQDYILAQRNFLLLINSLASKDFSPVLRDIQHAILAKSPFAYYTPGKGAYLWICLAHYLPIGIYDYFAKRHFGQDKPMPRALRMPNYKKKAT
Method: 17β-HSD2 Production and Isolation:
Similarly to 17β-HSD1 the Recombinant baculovirus was generated by the “Bac to Bac Expression System” (Invitrogen). Recombinant bacmid was transfected to Sd9 insect cells using “Cellfectin Reagent” (Invitrogen). 60 h later cells were harvested and supernatant were fractionated by the following protocol: • cells were dissolved into 40 ml of A-buffer (40 mM TRIS, pH8.0, 20% glycerol, 20 μM NAD, 0.4 mM PMSF, 150 mM NaCl, 0.5% dodecyl-β-maltoside+protease inhibitor cocktail) • cells were sonicated • lysate was incubated on ice for 15 min • lysate was centrifuged 5000 rpm 15 min, +4° C. • centrifugation of the supernatant 180.000 g 30 min, +4° C. • pellet was dissolved into 8 ml of A-buffer • not resuspended material was removed by centrifugation 5000 rpm 15 min, +4° C. • the clear supernatant was divided into 100 μl aliquots and were stored frozen until determination of enzymatic activity.
The amount of 17β-HSD2 was analysed by immunoblotting and total protein concentration of each extract batch was determined.
Assay—Inhibition of Recombinant Human 17β-HSD2:
Recombinant protein (4 μg/ml) was incubated in 20 mM KH2PO4 pH 8.5 with 50 nM estradiol (including 800.000 cpm/ml of ^3H-estradiol) and 1 mM NADH for 30 min at RT, in the presence of the potential inhibitor at concentrations 1 μM or 0.1 μM. Inhibitor stock solutions were prepared in DMSO. Final concentration of DMSO was adjusted to 1% in all samples. The enzyme reaction was stopped by addition of 10% trichloroacetic acid (final concentration). Samples were centrifuged in a microtiter plate at 4000 rpm for 10 min. Supernatants were applied to reverse phase HPLC on a Waters Symmetry C18 column, equipped with a Waters Sentry Guard column. Isocratic HPLC runs were performed at RT at a flow rate of 1 ml/min in acetonitrile:water 48:52 as running solvent. Radioactivity was monitored in the eluate by a Packard Flow Scintillation Analyzer. Total radioactivity for estrone and estradiol were determined in each sample and percent conversion of estradiol to estrone was calculated according to the following formula:
as §1

SMILES | inhibition at 1 µM [1] [%] | inhibition at 1 µM [2] [%] | 17β-HDS1 Inhibition % at 1 μM ([1]; dihydrochloride) [%] | 17β-HSD2 Inhibition % at 1 μM ([2]; dihydrochloride) [%]
Cc1cnc(NC(=O)CC[C@@H]2C[C@H](O)[C@@]3(C)CCC4c5ccc(O)c(NC(C)C)c5CCC4C23)s1 (stereo partly drawn) [Compound 71, 3-((13S,15R,17S)-3,17-Dihydroxy-4-isopropylamino-13-methyl-7,8,9,11,12,13,14,15,16,17-decahydro-6H-cyclopenta[a]phenanthren-15-yl)-N-(5-methylthiazol-2-yl)propionamide] | 49 | 10 |  | 
Cc1cnc(NC(=O)CC[C@@H]2C[C@H](O)[C@@]3(C)CCC4c5ccc(O)c(NC(C)CO)c5CCC4C23)s1 (stereo partly drawn) [Compound 72, 3-[(13S,15R,17S)-3,17-Dihydroxy-4-(2-hydroxy-1-methyl-ethylamino)-13-methyl-7,8,9,11,12,13,14,15,16,17-decahydro-6H-cyclopenta[a]phenanthren-15-yl]-N-(5-methylthiazol-2-yl)propionamide] | 50 | 0 |  | 
Cc1cnc(NC(=O)CC[C@@H]2CC(NC(C)C)[C@@]3(C)CCC4c5ccc(O)cc5CCC4C23)s1 (stereo partly drawn) [Compound 73, 3-[(13S,15R)-3-Hydroxy-17-isopropylamino-13-methyl-7,8,9,11,12,13,14,15,16,17-decahydro-6H-cyclopenta[a]phenanthren-15-yl]-N-(5-methylthiazol-2-yl)propionamide] | 86 | 11 |  | 
Cc1cnc(NC(=O)CC[C@@H]2C[C@H](NCC(C)C)[C@@]3(C)CCC4c5ccc(O)cc5CCC4C23)s1 (stereo partly drawn) [Compound 74, 3-((13S,15R)-3-Hydroxy-17-isobutylamino-13-methyl-7,8,9,11,12,13,14,15,16,17-decahydro-6H-cyclopenta[a]phenanthren-15-yl]-N-(5-methylthiazol-2-yl)propionamide] | 80 | 2 |  | 
Cc1cnc(NC(=O)CC[C@@H]2C[C@H](NCC(C)C)[C@@]3(C)CCC4c5cc(C(C)(C)C)c(O)cc5CCC4C23)s1 (stereo partly drawn) [Compound 75b, 3-((13S,15R)-2-tert-Butyl-3-Hydroxy-17-isobutylamino-13-methyl-7,8,9,11,12,13,14,15,16,17-decahydro-6H-cyclopenta[a]phenanthren-15-yl]-N-(5-methylthiazol-2-yl)propionamide] | 77 | 13 |  | 
Cc1cnc(NC(=O)CC[C@@H]2C[C@H](NCc3ccco3)[C@@]3(C)CCC4c5ccc(O)cc5CCC4C23)s1 (stereo partly drawn) [Compound 76, 3-((13S,15R)-17-[(Furan-2-ylmethyl)-amino]-3-hydroxy-13-methyl-7,8,9,11,12,13,14,15,16,17-decahydro-6H-cyclopenta[a]phenanthren-15-yl]-N-(5-methylthiazol-2-yl)propionamide] | 85 | 4 |  | 
COCCNC1C[C@@H](CCC(=O)Nc2ncc(C)s2)C2C3CCc4cc(O)ccc4C3CC[C@]12C (stereo partly drawn) [Compound 77, 3-((13S,15R)-3-Hydroxy-17-(2-methoxyethylamino)-13-methyl-7,8,9,11,12,13,14,15,16,17-decahydro-6H-cyclopenta[a]phenanthren-15-yl]-N-(5-methylthiazol-2-yl)propionamide] | 84 | 1 |  | 
Cc1cnc(NC(=O)CC[C@@H]2CC(NCCO)[C@@]3(C)CCC4c5ccc(O)cc5CCC4C23)s1 (stereo partly drawn) [Compound 78, 3-((13S,15R)-3-Hydroxy-17-(2-hydroxyethylamino)-13-methyl-7,8,9,11,12,13,14,15,16,17-decahydro-6H-cyclopenta[a]phenanthren-15-yl]-N-(5-methylthiazol-2-yl)propionamide] | 88 | 2 |  | 
COCCNC1C[C@@H](CCC(=O)Nc2ncc(C)s2)C2C3CCc4cc(O)c(C(C)(C)C)cc4C3CC[C@]12C (stereo partly drawn) [Compound 79, 3-((13S,15R)-2-tert-Butyl-3-hydroxy-17-(2-methoxyethylamino)-13-methyl-7,8,9,11,12,13,14,15,16,17-decahydro-6H-cyclopenta[a]phenanthren-15-yl)-N-(5-methylthiazol-2-yl)propionamide] | 75 | 17 |  | 
Cc1cnc(NC(=O)CC[C@@H]2CC(NCCCN(C)C)[C@@]3(C)CCC4c5ccc(O)cc5CCC4C23)s1 (stereo partly drawn) [Compound 80a, 3-[(13S,15R)-17-(3-Dimethylamino-propylamino)-3-hydroxy-13-methyl-7,8,9,11,12,13,14,15,16,17-decahydro-6H-cyclopenta[a]phenanthren-15-yl]-N-(5-methylthiazol-2-yl)propionamide] | 70 | 1 |  | 
Cc1cnc(NC(=O)CC[C@@H]2CC(NCCCN(C)C)[C@@]3(C)CCC4c5ccc(O)cc5CCC4C23)s1 (stereo partly drawn) [Compound 80b, 3-[(13S,15R)-17-(3-Dimethylamino-propylamino)-3-hydroxy-13-methyl-7,8,9,11,12,13,14,15,16,17-decahydro-6H-cyclopenta[a]phenanthren-15-yl]-N-(5-methylthiazol-2-yl)propionamide dihydrochloride] |  |  | 61 | 2
Cc1cnc(NC(=O)CC[C@@H]2CC(NCCN(C)C)[C@@]3(C)CCC4c5ccc(O)cc5CCC4C23)s1 (stereo partly drawn) [Compound 81, 3-[(13S,15R)-17-(2-Dimethylamino-ethylamino)-3-hydroxy-13-methyl-7,8,9,11,12,13,14,15,16,17-decahydro-6H-cyclopenta[a]phenanthren-15-yl]-N-(5-methylthiazol-2-yl)propionamide] | 71 | 2 |  | 
